Several values for one entry are separate records, joined by “and”; a condition that tells them apart may be missing. Equal entries are not always repeated.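 Dose response: 5 concentrations. Exposure: 48 h. Format: 96-well plates. Endpoint: linear interpolation; highest concentration if not reached. The concentration for 50% growth inhibition is given as GI50. Definition used: TGI = concentration required for complete inhibition of growth.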
How the values were obtained:
Assay in all cases: NCI-60 cell line screen, 48 h
EKVX NSCLC = system: EKVX NSCLC
NCI-H522 lung = system: NCI-H522 lung
SK-MEL-28 melanoma = system: SK-MEL-28 melanoma
ACHN renal = system: ACHN renal
HL-60(TB) leukemia = system: HL-60(TB) leukemia
PC-3 prostate = system: PC-3 prostate
HOP-62 NSCLC = system: HOP-62 NSCLC
MDA-MB-231 breast = system: MDA-MB-231 breast
BT-549 breast = system: BT-549 breast
A498 renal = system: A498 renal
OVCAR-8 ovarian = system: OVCAR-8 ovarian

SMILES	TGI (EKVX NSCLC)	TGI (NCI-H522 lung)	TGI (SK-MEL-28 melanoma)	TGI (ACHN renal)	TGI (HL-60(TB) leukemia)	TGI (PC-3 prostate)	TGI (HOP-62 NSCLC)	TGI (MDA-MB-231 breast)	TGI (BT-549 breast) [µM]	TGI (A498 renal)	TGI (OVCAR-8 ovarian)	GI50 (EKVX NSCLC) [µM]	GI50 (NCI-H522 lung)
CCCCOCCOCCOC1=CC(=O)c2c(O)ccc(O)c2C1=O	> 10 µM	2.99 µM	2.95 µM	3.2 µM	6 µM	7.53 µM	3.22 µM	3.86 µM	3.16				
Brc1ccc(C2C3CSc4ccccc4C3=NN2c2ccccc2)cc1 (configuration not stated)			> 100 µM		> 100 µM	> 100 µM	> 100 µM	> 100 µM	> 100	> 100 µM	> 100 µM		
CCOC(=O)N/N=C(/N)c1cccc(Br)c1	> 100 µM	> 100 µM		> 100 µM	> 100 µM	> 100 µM	> 100 µM	> 100 µM	> 100		> 100 µM		
Clc1ccc(Cl)c(N=Nc2cc3c4c(c2)CCN4CCC3)c1	> 10 µM	> 10 µM	> 10 µM	> 10 µM	> 10 µM	> 10 µM	> 10 µM	> 10 µM		> 10 µM	> 10 µM		
Clc1ccc(Nc2nnc(CNc3ccc(-c4nnc(Nc5ccc(Cl)cc5)s4)cc3)s2)cc1	> 100 µM	43.2 µM	> 100 µM	> 100 µM		> 100 µM	> 100 µM	> 100 µM	> 100	> 100 µM			
CCc1n[nH]c(=O)n1CCCCCCCCn1c(CC)n[nH]c1=O	> 100 µM	> 100 µM		> 100 µM		> 100 µM	> 100 µM	> 100 µM	> 100		> 100 µM		
CC(C)N(C(=O)C12C3C4C1C1C2C3C41C#N)C(C)C (configuration not stated)	> 100 µM	> 100 µM	> 100 µM	> 100 µM	> 59 µM		> 100 µM			> 100 µM	> 100 µM		
CCOc1ccccc1N=Nc1ccc2oc(=O)c(C(C)=O)cc2c1	> 100 µM	> 100 µM	> 100 µM		> 100 µM		> 100 µM			> 100 µM	> 100 µM		
COc1cc2c(c(OC)c1OC)-c1ccc(SC)c(=O)cc1[C@@H](NCc1ccc(F)cc1)CC2	75 µM and > 100 µM		75 µM	75 µM and 49.2 µM	> 100 µM		75 µM and 20.6 µM			0.0265 µM	75 µM	< 0.0075	
COCC(C)(C)N=CN1Cc2cc3ccccc3nc2C1	> 100 µM	> 100 µM	> 100 µM	> 100 µM	> 100 µM		> 100 µM				> 100 µM		
O=c1[nH]/c(=C/c2ccc3c(c2)OCO3)c(=O)[nH]/c1=C/c1ccc2c(c1)OCO2	> 10 µM	> 10 µM	> 10 µM	> 10 µM		> 10 µM	> 10 µM	> 10 µM	> 10	> 10 µM	> 10 µM		
CCCCCCCC/C=C1\CCC(CN(C)C)C1=O (configuration not stated)	21.6 µM	13.3 µM	13.3 µM	18.7 µM	22.2 µM		24.7 µM			30.7 µM	9.67 µM		
COC(=O)C(=O)C(C(=O)OC)C(=O)C(=O)Nc1c(C)cccc1C (configuration not stated)	> 100 µM	> 100 µM	> 100 µM	> 100 µM	> 100 µM		> 100 µM			> 100 µM	> 100 µM		
C=C1CC(C)(COc2ccc3c(C)c(Cl)c(=O)oc3c2)OC1=O (configuration not stated)	20.8 µM	2.1 µM	7.59 µM	11.4 µM	1.21 µM	12 µM	34.5 µM	12.6 µM	2.81		17.3 µM		
CC(=O)Nc1[nH]n(C)c(=O)c1-c1nnc(C)s1	> 100 µM	> 100 µM	> 100 µM	> 100 µM	> 100 µM		> 100 µM			> 100 µM	> 100 µM		
Cc1ccc(NC(=O)CCCC(=O)CC(=O)c2ccc(Br)cc2)cc1	> 100 µM	> 100 µM	> 100 µM	> 100 µM			> 100 µM			> 100 µM	> 100 µM		
CC1=C(c2nc3ccccc3s2)C(=O)OC1(C)C	> 100 µM	> 100 µM	> 100 µM	> 100 µM			> 100 µM				> 100 µM		
CC(C)(C)OC(=O)NC1CCCC1C(=O)C1=CCCC1 (configuration not stated)			> 100 µM	> 100 µM	> 100 µM	> 100 µM	> 100 µM	> 100 µM	> 100	> 100 µM	> 100 µM		
FC(F)(F)c1ccccc1C1SCC2=Nc3ccccc3CN21 (configuration not stated)	24.9 µM		58.2 µM		66.2 µM	27.9 µM	23.1 µM	> 100 µM	44.2	35.3 µM	30.5 µM		
CC1=CC(=O)CC2(C)CCC(C(C)CC(=O)CC(C)C)CC12OO (configuration not stated)	36.8 µM and 34.3 µM	19.5 µM and 26.9 µM	28.5 µM and 32.5 µM	30.8 µM and 31.4 µM	74.7 µM and 17.4 µM	29.1 µM and 27.3 µM		29.5 µM and 32.7 µM		31.5 µM and 49.4 µM	90.2 µM and 45.4 µM		4.8 µM and 12.6 µM
[N-]=[N+]=Nc1ccccc1-c1ccccc1[N+](=O)[O-]	> 100 µM	45.4 µM	> 100 µM	> 100 µM		> 100 µM	> 100 µM	> 100 µM	> 100	> 100 µM	> 100 µM		
COC(=O)C(CC(C)C)NC(=O)C(NC(=O)c1ccc(-c2ccc(Cl)cc2Cl)o1)C(C)C (configuration not stated)	62.6 µM	55.5 µM	> 100 µM	85.6 µM	30.8 µM	> 100 µM	65.4 µM	35.3 µM	> 100		> 100 µM		
CC(C)c1cccc(C(C)C)c1NC(=O)C(=O)Cc1nc2ccc([N+](=O)[O-])cc2[nH]c1=O	> 100 µM	54.4 µM	> 100 µM	> 100 µM	> 100 µM					> 100 µM			
Cc1c(O)c(=O)ccn1CCN	> 100 µM	> 100 µM	> 100 µM	> 100 µM						> 100 µM	> 100 µM		
N#CCCn1[nH]c(=O)c(Cl)c(Cl)c1=O	12.5 µM	41.3 µM	30.9 µM	30.7 µM	35.5 µM					41.2 µM	32.9 µM		

From PubChem BioAssay (NCI)
